Assay results as given in ChEMBL document CHEMBL1201862, “PubChem BioAssay data set” (2004).
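Exposure lasted 48 hours, with cells grown in 96-well plates and compounds tested at five concentrations. GI50 = concentration required for 50% inhibition of growth.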 The source made the active and inactive calls. Rule as the data show it: active = GI50 up to about 1.1 µM and inactive = higher.

What was measured:
Assay in all cases: NCI tumour cell line growth inhibition, 48 h
786-0 = system: 786-0
A498 = system: A498
A549 = system: A549
ACHN = system: ACHN
BT-549 = system: BT-549
CAKI-1 = system: CAKI-1
CCRF-CEM = system: CCRF-CEM
COLO 205 = system: COLO 205
DU-145 = system: DU-145
EKVX = system: EKVX
HCT-116 = system: HCT-116
HCT-15 = system: HCT-15
HL-60 = system: HL-60
HOP-62 = system: HOP-62
HOP-92 = system: HOP-92
HT-29 = system: HT-29
Hs-578T = system: Hs-578T
K562 = system: K562
KM12 = system: KM12
LOX IMVI = system: LOX IMVI
M14 = system: M14
MCF7 = system: MCF7
MDA-MB-231 = system: MDA-MB-231
MDA-MB-435 = system: MDA-MB-435
MOLT-4 = system: MOLT-4
Malme-3M = system: Malme-3M
NCI-H226 = system: NCI-H226
NCI-H23 = system: NCI-H23
NCI-H460 = system: NCI-H460
OVCAR-3 = system: OVCAR-3
OVCAR-4 = system: OVCAR-4
OVCAR-5 = system: OVCAR-5
OVCAR-8 = system: OVCAR-8
PC-3 = system: PC-3
RPMI-8226 = system: RPMI-8226
RXF 393 = system: RXF 393
SF-268 = system: SF-268
SF-295 = system: SF-295
SF-539 = system: SF-539
SK-OV-3 = system: SK-OV-3
SN12C = system: SN12C
SNB-19 = system: SNB-19
SNB-75 = system: SNB-75
SR = system: SR
SW-620 = system: SW-620
T47D = system: T47D
TK-10 = system: TK-10
U-251 = system: U-251
UACC-257 = system: UACC-257
UACC-62 = system: UACC-62
UO-31 = system: UO-31
HCC 2998 = system: HCC 2998
IGROV-1 = system: IGROV-1
NCI-H522 = system: NCI-H522
NCI/ADR-RES = system: NCI/ADR-RES
SK-MEL-28 = system: SK-MEL-28
SK-MEL-2 = system: SK-MEL-2
SK-MEL-5 = system: SK-MEL-5

Structure (SMILES): Cc1cc(S(=O)(=O)[N-]/C(=N/S(=O)(=O)c2ccc(Cl)cc2)[n+]2ccc(N(C)C)cc2)c(SCC(=O)O)cc1Cl
- GI50 (786-0): > 100 µM (inactive)
- GI50 (A498): 45.4 µM (inactive)
- GI50 (A549): > 100 µM (inactive)
- GI50 (ACHN): > 100 µM (inactive)
- GI50 (BT-549): > 100 µM (inactive)
- GI50 (CAKI-1): > 100 µM (inactive)
- GI50 (CCRF-CEM): 45.3 µM (inactive)
- GI50 (COLO 205): > 100 µM (inactive)
- GI50 (DU-145): > 100 µM (inactive)
- GI50 (EKVX): 46.8 µM (inactive)
- GI50 (HCT-116): 26.4 µM (inactive)
- GI50 (HCT-15): > 100 µM
- GI50 (HL-60): > 100 µM (inactive)
- GI50 (HOP-62): 17.9 µM (inactive)
- GI50 (HOP-92): 24.6 µM (inactive)
- GI50 (HT-29): 57.5 µM (inactive)
- GI50 (Hs-578T): > 100 µM (inactive)
- GI50 (K562): 37.8 µM (inactive)
- GI50 (KM12): > 100 µM (inactive)
- GI50 (LOX IMVI): > 100 µM (inactive)
- GI50 (M14): 25.2 µM (inactive)
- GI50 (MCF7): 43.8 µM (inactive)
- GI50 (MDA-MB-231): 83.4 µM (inactive)
- GI50 (MDA-MB-435): > 100 µM (inactive)
- GI50 (MOLT-4): 34.7 µM (inactive)
- GI50 (Malme-3M): 33.2 µM (inactive)
- GI50 (NCI-H226): 52.7 µM (inactive)
- GI50 (NCI-H23): > 100 µM (inactive)
- GI50 (NCI-H460): 42.8 µM (inactive)
- GI50 (OVCAR-3): 69.7 µM (inactive)
- GI50 (OVCAR-4): 34.8 µM (inactive)
- GI50 (OVCAR-5): 21.5 µM (inactive)
- GI50 (OVCAR-8): > 100 µM (inactive)
- GI50 (PC-3): 69.5 µM (inactive)
- GI50 (RPMI-8226): 71.1 µM (inactive)
- GI50 (RXF 393): 59.4 µM (inactive)
- GI50 (SF-268): > 100 µM (inactive)
- GI50 (SF-295): 30.7 µM (inactive)
- GI50 (SF-539): 35.5 µM (inactive)
- GI50 (SK-OV-3): 75 µM (inactive)
- GI50 (SN12C): > 100 µM (inactive)
- GI50 (SNB-19): > 100 µM (inactive)
- GI50 (SNB-75): 20.5 µM (inactive)
- GI50 (SR): 35 µM (inactive)
- GI50 (SW-620): 64.1 µM (inactive)
- GI50 (T47D): > 100 µM (inactive)
- GI50 (TK-10): 86.5 µM (inactive)
- GI50 (U-251): > 100 µM (inactive)
- GI50 (UACC-257): > 100 µM (inactive)
- GI50 (UACC-62): 91.4 µM (inactive)
- GI50 (UO-31): > 100 µM (inactive)

Structure (SMILES): COc1ccc2nc3cc(Cl)ccc3c(NCCCN(Cc3cc(OC)c(OC)c(OC)c3)Cc3cc(OC)c(OC)c(OC)c3)c2c1
- GI50 (786-0): 12.1 µM (inactive)
- GI50 (A549): 14.6 µM (inactive)
- GI50 (ACHN): 11.7 µM (inactive)
- GI50 (BT-549): 14.1 µM (inactive)
- GI50 (CAKI-1): 14.4 µM (inactive)
- GI50 (COLO 205): 4.3 µM (inactive)
- GI50 (DU-145): 12.8 µM (inactive)
- GI50 (EKVX): 13.5 µM (inactive)
- GI50 (HCC 2998): 14.3 µM (inactive)
- GI50 (HCT-116): 0.174 µM (active)
- GI50 (HCT-15): > 10 µM
- GI50 (HOP-62): 4.65 µM (inactive)
- GI50 (HOP-92): 10.1 µM (inactive)
- GI50 (HT-29): 2.31 µM (inactive)
- GI50 (Hs-578T): 8.55 µM (inactive)
- GI50 (IGROV-1): 15.3 µM (inactive)
- GI50 (K562): 1.19 µM (inactive)
- GI50 (KM12): 13.8 µM (inactive)
- GI50 (M14): 1.78 µM (inactive)
- GI50 (MCF7): 13.6 µM (inactive)
- GI50 (MDA-MB-231): < 0.01 µM (active)
- GI50 (MDA-MB-435): > 10 µM (inactive)
- GI50 (MOLT-4): 1.34 µM (inactive)
- GI50 (Malme-3M): 17.7 µM (inactive)
- GI50 (NCI-H226): 14 µM (inactive)
- GI50 (NCI-H23): > 10 µM (inactive)
- GI50 (NCI-H460): 6.84 µM (inactive)
- GI50 (NCI-H522): 9.48 µM (inactive)
- GI50 (NCI/ADR-RES): 23.4 µM (inactive)
- GI50 (OVCAR-3): 19 µM (inactive)
- GI50 (OVCAR-5): 13.3 µM (inactive)
- GI50 (OVCAR-8): 12.1 µM (inactive)
- GI50 (PC-3): 10.4 µM (inactive)
- GI50 (RPMI-8226): 3.07 µM (inactive)
- GI50 (RXF 393): 3.38 µM (inactive)
- GI50 (SF-268): 13.5 µM (inactive)
- GI50 (SF-295): 3.33 µM (inactive)
- GI50 (SF-539): 2.2 µM (inactive)
- GI50 (SK-MEL-28): 16.4 µM (inactive)
- GI50 (SK-MEL-2): 25.1 µM (inactive)
- GI50 (SK-MEL-5): 1.29 µM (inactive)
- GI50 (SK-OV-3): 17.1 µM (inactive)
- GI50 (SN12C): 16.8 µM (inactive)
- GI50 (SNB-19): 17.4 µM (inactive)
- GI50 (SR): 2.31 µM (inactive)
- GI50 (SW-620): 1.14 µM (inactive)
- GI50 (T47D): 23 µM (inactive)
- GI50 (TK-10): 23.1 µM (inactive)
- GI50 (U-251): 4.32 µM (inactive)
- GI50 (UACC-257): 13.9 µM (inactive)
- GI50 (UACC-62): 18.4 µM (inactive)
- GI50 (UO-31): 10.6 µM (inactive)
